Results: patent US10323001B2, “Compositions for modulating a kinase cascade and methods of use thereof” (Athenex, Inc., priority 2006, dated 2019)

Experiments:
Src protein substrates [1] = test: Src substrate phosphorylation in human colon cancer cells (HT29); type: cell-based
Text: (§1) Compounds of the invention or salts thereof may be Src signaling inhibitors that bind in the Src peptide substrate site. The activity of various compounds of the invention and salts has been studied in c-Src ([…], constitutively active and transforming) transformed NIH3T3 cells and in human colon cancer cells (HT29).

[2] = Moisture-sorption analysis (Hiden IGAsorp); type: physicochemical; conditions: 90% RH, 25° C.; listed as Free base
Method: Moisture-sorption experiments were performed using a Hiden IGAsorp Moisture Sorption instrument on KX2-391.MSA obtained in accordance with the process of the present invention (Example 4). First, the sample was dried at 0% Relative Humidity (RH) and 25° C. until an equilibrium weight was reached or for a maximum of four hours. The sample was then subjected to an isothermal (25° C.) adsorption scan from 10 to 90% RH in steps of 10%. The sample was allowed to equilibrate to an asymptotic weight at each point for a maximum of four hours. Following adsorption, a desorption scan from 85 to 0% RH (at 25° C.) was run in steps of −10% again allowing a maximum of four hours for equilibration to an asymptotic weight. The sample was then dried for one hour at 80° C. and the resulting solid analyzed by XRPD. […] FIG. 10 depicts percent change of water content as a function of relative humidity for KX2-391.MSA, Form A.
Moisture-sorption experiments were performed using a Hiden IGAsorp Moisture Sorption Instrument on KX2-391.2HCl obtained in accordance with the process of the present invention (Example 3). First, the sample was dried at 0% Relative Humidity (RH) and 25° C. until an equilibrium weight was reached or for a maximum of four hours. The sample was then subjected to an isothermal (25° C.) adsorption scan from 10 to 90% RH in steps of 10%. The sample was allowed to equilibrate to an asymptotic weight at each point for a maximum of four hours. Following adsorption, a desorption scan from 85 to 0% RH (at 25° C.) was run in steps of −10% again allowing a maximum of four hours for equilibration to an asymptotic weight. The sample was then dried for one hour at 80° C. and the resulting solid analyzed by XRPD.

Src protein substrates [3] = test: Src substrate phosphorylation in c-Src transformed NIH3T3 cells; type: cell-based; conditions: c-Src (527F, constitutively active and transforming) transformed NIH3T3 cells
Text: as §1

Moisture Sorption Wt % Water @ 90% RH [2]: 3.7 wt %
SMILES: O=C(Cc1ccc(-c2ccc(OCCN3CCOCC3)cc2)cn1)NCc1ccccc1 [KX2-391, 2-(5-(4-(2-morpholinoethoxy)phenyl)pyridin-2-yl)-N-benzylacetamide]
phosphorylation level of known Src protein substrates (Src protein substrates [1]): reduce the phosphorylation level of known Src protein substrates in a dose-dependent fashion
phosphorylation level of known Src protein substrates (Src protein substrates [3]): reduce the phosphorylation level of known Src protein substrates in a dose-dependent fashion
